Values after ≈ are worked out from the molar mass of the structure shown.
Tests used:
Bacillus subtilis = assay: Antimicrobial activity against Bacillus subtilis ATCC 6633 by tube dilution method; assay type: functional
Staphylococcus aureus [1] = assay: Antimicrobial activity against Staphylococcus aureus 209 P by tube dilution method; assay type: functional
Staphylococcus aureus [2] = assay: Antimicrobial activity against drug resistant Staphylococcus aureus isolate 153 producing beta lactamase by tube dilution method; assay type: functional
Escherichia coli = assay: Antimicrobial activity against Escherichia coli B ATCC 11303 by tube dilution method; assay type: functional
Micrococcus luteus = assay: Antimicrobial activity against Sarcina lutea ATCC 9341 by tube dilution method; assay type: functional
HeLa [3] = assay: Cytotoxicity against human HeLa cells assessed as colony formation at 12.5 ng/ml relative to control; assay type: functional
HeLa [4] = assay: Cytotoxicity against human HeLa cells assessed as colony formation at 6.2 ng/ml relative to control; assay type: functional
HeLa [5] = assay: Cytotoxicity against human HeLa cells assessed as colony formation at 3.1 ng/ml relative to control; assay type: functional
HeLa [6] = assay: Cytotoxicity against human HeLa cells assessed as colony formation at 1.5 ng/ml relative to control; assay type: functional
HeLa [7] = assay: Cytotoxicity against human HeLa cells assessed as inhibition of colony formation relative to control; assay type: functional; conditions: read-out: ID50 (the source's name)
P388 [8] = assay: Cytotoxicity against mouse P388 cells; assay type: functional; conditions: read-out: ID50 (the source's name)
P388 [9] = assay: Cytotoxicity against doxorubicin resistant mouse P388 cells; assay type: functional; conditions: read-out: ID50 (the source's name)
P388 [10] = assay: Antitumor activity against mouse P388 cells xenografted in mouse assessed as median survival time at 0.4 mg/kg, ip relative to control; assay type: functional; conditions: route intraperitoneal
P388 [11] = assay: Antitumor activity against mouse P388 cells xenografted in mouse assessed as median survival time at 0.6 mg/kg, ip relative to control; assay type: functional; conditions: route intraperitoneal
P388 [12] = assay: Antitumor activity against mouse P388 cells xenografted in mouse assessed as median survival time at 1 mg/kg, ip relative to control; assay type: functional; conditions: route intraperitoneal
P388 [13] = assay: Antitumor activity against mouse P388 cells xenografted in mouse assessed as median survival time at 1.5 mg/kg, ip relative to control; assay type: functional; conditions: route intraperitoneal
Mus musculus [14] = assay: Toxicity in mouse P388 cells xenografted mouse assessed as induction of death at 0.4 mg/kg, ip; assay type: organism-based; parameters: dose 0.4 mg/kg, route intraperitoneal; conditions: in vivo
Mus musculus [15] = assay: Toxicity in mouse P388 cells xenografted mouse assessed as induction of death at 0.6 mg/kg, ip; assay type: organism-based; parameters: dose 0.6 mg/kg, route intraperitoneal; conditions: in vivo
Mus musculus [16] = assay: Toxicity in mouse P388 cells xenografted mouse assessed as induction of death at 1.5 mg/kg, ip; assay type: organism-based; parameters: dose 1.5 mg/kg, route intraperitoneal; conditions: in vivo
HeLa [17] = assay: Cytotoxicity against human HeLa cells assessed as inhibition of colony formation at 25 ng/ml relative to control; assay type: functional; parameters: scale not given: the % may be the effect or the level left
P388 [18] = assay: Antitumor activity against mouse P388 cells xenografted in mouse assessed as median survival time at 2.9 mg/kg, ip relative to control; assay type: functional; conditions: route intraperitoneal
P388 [19] = assay: Antitumor activity against mouse P388 cells xenografted in mouse assessed as median survival time at 4.4 mg/kg, ip relative to control; assay type: functional; conditions: route intraperitoneal
P388 [20] = assay: Antitumor activity against mouse P388 cells xenografted in mouse assessed as median survival time at 6.6 mg/kg, ip relative to control; assay type: functional; conditions: route intraperitoneal
Mus musculus [21] = assay: Toxicity in mouse P388 cells xenografted mouse assessed as induction of death at 2.9 mg/kg, ip; assay type: organism-based; parameters: dose 2.9 mg/kg, route intraperitoneal; conditions: in vivo
Mus musculus [22] = assay: Toxicity in mouse P388 cells xenografted mouse assessed as induction of death at 4.4 mg/kg, ip; assay type: organism-based; parameters: dose 4.4 mg/kg, route intraperitoneal; conditions: in vivo

Row | SMILES | Activity (HeLa [3]) [%] | Activity (HeLa [4]) [%] | Activity (HeLa [5]) [%] | Activity (HeLa [6]) [%] | IC50 (HeLa [7]) [µg/mL] | IC50 (P388 [8]) [µg/mL] | IC50 (P388 [9]) [µg/mL] | other results
1 | CC[C@]1(O)Cc2c(O)c3c(c(O)c2[C@@H](O[C@H]2C[C@H](N)[C@H](O)[C@H](C)O2)C1)C(=O)c1c(O)cccc1C3=O | 36 | 55 | 90 | 126 | 0.0062 (≈ 0.0124 µM) | 0.0015 (≈ 0.003 µM) | 0.004 (≈ 0.00801 µM) | MIC (Bacillus subtilis): 6.25 µg/mL (≈ 12.5 µM); MIC (Staphylococcus aureus [1]): 12.5 µg/mL (≈ 25 µM); MIC (Staphylococcus aureus [2]): 25 µg/mL (≈ 50 µM); MIC (Escherichia coli): 3.12 µg/mL (≈ 6.25 µM); MIC (Micrococcus luteus): 1.56 µg/mL (≈ 3.12 µM); Activity (P388 [10]): 136%; Activity (P388 [11]): 150%; Activity (P388 [12]): 163%; Activity (P388 [13]): 109%; Activity (Mus musculus [14]): Non-toxic; Activity (Mus musculus [15]): Non-toxic; Activity (Mus musculus [16]): Toxic
2 | CC(=O)[C@]1(O)Cc2c(O)c3c(c(O)c2[C@@H](O[C@H]2C[C@H](N)[C@H](O)[C@H](C)O2)C1)C(=O)c1c(O)cccc1C3=O [CARUBICIN] | 0 | 3 | 33 | 120 | 0.0031 (≈ 0.00604 µM) | 0.007 (≈ 0.0136 µM) | 0.004 (≈ 0.00779 µM) | –
3 | COc1cccc2c1C(=O)c1c(O)c3c(c(O)c1C2=O)C[C@@](O)(C(C)=O)C[C@@H]3O[C@H]1C[C@H](N)[C@H](O)[C@H](C)O1 [DAUNORUBICIN] | 48 | 123 | – | – | 0.0125 (≈ 0.0237 µM) | 0.0095 (≈ 0.018 µM) | 0.75 (≈ 1.42 µM) | Activity (HeLa [17]): 13%; T/C (P388 [18]): 177%; T/C (P388 [19]): 190%; T/C (P388 [20]): 168%; Activity (Mus musculus [21]): Non-toxic; Activity (Mus musculus [22]): Non-toxic
